Measurements: paper PMC5587747, “A natural chalcone induces apoptosis in lung cancer cells: 3D-QSAR, docking and an in vivo/vitro assay” (Scientific Reports, 2017)
Read-outs that look alike come from different tables or passages of the source.

Assays:
[1] = test system: S180-bearing mice; assay: In vivo antitumor activity in S180 implanted mice; conditions: 25 mg/kg oral daily, 12 days
Experimental: The animal experiments were carried out according to the National Institute of Health Guide for the Care and Use of Laboratory Animals. And the use of experimental animals was approved by the Animal Ethics Committee of Shenyang Pharmaceutical University. Male Kunming mice, were housed in separate cages under standard conditions (20–24 °C), relative humidity (55% ± 5%) and a 12 h light/12 h dark cycle, and allowed to acclimatize for 3 days prior to the start of experiment. Cultured S180 cells were harvested and washed with sterilized PBS (pH 7.2) three times and resuspended at a density of 6 × 10^6 cells/ml. Mice received subcutaneous implants of 0.2 mL/mouse on the right flank by means of hypodermic injection. Then the mice were divided randomly into 5 groups, including model, positive control and treatment groups with 10 mice in each group after inoculation for 24 h. […] Both groups received oral administrations via an intubation needle every day. […] The weight of the mice was recorded every day throughout the experiment. Finally, the mice were sacrificed by cervical dislocation just 2 h after the last administration. Then the tumor and spleen tissues were harvested and weighed immediately. After that the in vivo tumor inhibition ratio was calculated as: Inhibition ratio (%) = 100((A−B)/A), in which A represents the average tumor weight of the control group and B is recorded as the tumor weight of the administration group. Then, the spleen index was recorded using the following formula:
Spleen index = the final weight of spleen (mg)/the final average body weight (g) without tumor.

[2] = test system: H292 cells; assay: MTT cytotoxicity assay, H292 cells; type: cell-based, human
Experimental: (§1) The cytotoxicities of the tested flavonoids were assayed in ten human lung cancer cell lines (A549, H226, H358, H522, H292, H1944, H460, H1792, SW1573, and Calu-1) using MTT reduction assay. Cisplatin (DDP) was selected as a positive control. Compounds 1–37 were dissolved in DMSO to obtain a clear solution of 1 M, which was diluted to 400 mM, 200 mM, 100 mM, 75 mM, 50 mM, 37.5 mM, 25 mM, 10 mM and 1 mM respectively as stock solutions. The DMSO concentration in the medium was kept below 0.10%. Moreover, the stability of tested compounds in experimental buffer was confirmed at 24 h and 48 h respectively by means of HPLC analysis. Then the human lung cancer cells were placed in 96-well culture plates (5 × 10^4 cells/well) and incubated for 24 h. Then, the cells were pretreated with different concentrations of test samples (gradient concentrations 1.0, 10.0, 25.0, 37.5, 50, 75, 100, 200, 400, 1000 μM for compounds 1–37 and DDP) for 48 h. And cell growth was measured by MTT assays. The cytotoxicities against the lung cancer cells were determined systematically and expressed as IC50 value.

[3] = test system: Calu-1; assay: MTT cytotoxicity assay, Calu-1 cells; type: cell-based, human; conditions: DDP 10 μM
Experimental: as §1

[4] = test system: SW1573; assay: MTT cytotoxicity assay, SW1573 cells; type: cell-based, human; conditions: DDP 10 μM
Experimental: as §1

[5] = test system: H226; assay: MTT cytotoxicity assay, H226 cells; type: cell-based, human; conditions: DDP 10 μM
Experimental: as §1

[6] = test system: H358; assay: MTT cytotoxicity assay, H358 cells; type: cell-based, human; conditions: DDP 10 μM
Experimental: as §1

[7] = test system: H460; assay: MTT cytotoxicity assay, H460 cells; type: cell-based, human; conditions: DDP 10 μM
Experimental: as §1

[8] = test system: A549; assay: MTT cytotoxicity assay, A549 cells; type: cell-based, human; conditions: DDP 10 μM
Experimental: as §1

[9] = test system: H522; assay: MTT cytotoxicity assay, H522 cells; type: cell-based, human; conditions: DDP 10 μM
Experimental: as §1

[10] = test system: H1944; assay: MTT cytotoxicity assay, H1944 cells; type: cell-based, human; conditions: DDP 10 μM
Experimental: as §1

[11] = test system: H1792; assay: MTT cytotoxicity assay, H1792 cells; type: cell-based, human; conditions: DDP 10 μM
Experimental: as §1

[12] = Homo sapiens, NCI-H292, H292 cells, MTT, 48 h, Table S2, read-out: IC50
[13] = Homo sapiens, NCI-H292, H292 cells, Table S2, read-out: pIC50 (converted)
[14] = Homo sapiens, NCI-H292, H292 cells, MTT, 48 h, read-out: IC50

Molecule | IC50 [2, 12] | IC50 [2, 13] | further results
O=P1(N(CCCl)CCCl)NCCCO1 (stereo not shown) [CTX, Cyclophosphamide, reference compound] | – | – | Body weight/g After experiment [1]: 28.09 ± 0.56 g; Body weight/g Before experiment [1]: 35.97 ± 0.89 g; Inhibitory rate (%) [1]: 80.75%; Tumor weight/g ([1]; mean ± SE): 1.55 ± 0.30 g
COc1cc(OC)c(Cl)c(-c2cc(=O)c3ccc4occc4c3o2)c1Cl [Compound 1] | 490 µM | 490 µM | –
O=c1cc(-c2ccccc2)oc2c1c(O)cc1occc12 [Compound 3, kanjone] | > 1000 µM | > 1000 µM | –
O=c1cc(-c2ccc(O)cc2)oc2c1ccc1occc12 [Compound 4] | 705 µM | 705 µM | –
O=c1cc(-c2ccc3c(c2)OCO3)oc2c1ccc1occc12 [Compound 6] | > 1000 µM | > 1000 µM | –
O=c1cc(-c2ccccc2)oc2c1cc(O)c1occc12 [Compound 8] | 750 µM | 750 µM | –
COc1cc2c(=O)cc(-c3ccccc3)oc2c2ccoc12 [Compound 9, 6-hydroxy,3-methoxyfuro[8,7:4′′,5′′]flavone] | 975 µM | 975 µM | –
COc1c(-c2ccccc2)oc2c(ccc3occc32)c1=O [Compound 10] | 794 µM | 794 µM | –
COc1c(-c2ccccc2)oc2c(cc(O)c3occc32)c1=O [Compound 11, demethylate kanjone] | > 1000 µM | > 1000 µM | –
COc1c(-c2ccc3c(c2)OCO3)oc2c3c(ccc2c1=O)OC(C)(C)C=C3 [Compound 12, pongapinnol-C] | – | 100 µM | IC50 [2, 14]: 100 µM
COc1cccc(-c2cc(=O)c3ccc4occc4c3o2)c1 [Compound 13] | 615 µM | 615 µM | –
O=c1cc(-c2cccc(O)c2)oc2c1ccc1occc12 [Compound 14, isopongaglabol] | 630 µM | 630 µM | –
COc1cc(OC)cc(-c2cc(=O)c3ccc4occc4c3o2)c1 [Compound 15] | – | 158 µM | IC50 [2, 14]: 158 µM
COc1ccc(OC)c(-c2cc(=O)c3ccc4occc4c3o2)c1 [Compound 16] | 374 µM | 374 µM | –
COc1ccc(O)cc1-c1oc2c(ccc3occc32)c(=O)c1OC [Compound 18] | > 1000 µM | > 1000 µM | –
COc1cc(O)cc(-c2oc3c(ccc4occc43)c(=O)c2OC)c1 [Compound 19] | > 1000 µM | > 1000 µM | –
COc1c2ccoc2cc2oc(-c3ccccc3)cc(=O)c12 [Compound 20] | > 1000 µM | > 1000 µM | –

Molecule | IC50 [2, 12] | IC50 [2, 13] | further results
COc1c2ccoc2cc2oc(-c3ccc4c(c3)OCO4)cc(=O)c12 [Compound 22] | > 1000 µM | > 1000 µM | –
COc1ccc2c(=O)c(OC)c(-c3ccc4c(c3)OCO4)oc2c1 [Compound 24] | 394 µM | 394 µM | –
COc1ccc2c(=O)c(OC)c(-c3ccc(OC)c(OC)c3)oc2c1 [Compound 25] | 1000 µM | 1000 µM | –
COc1ccc(-c2coc3cc(CC=C(C)C)ccc3c2=O)cc1 [Compound 26] | – | 294 µM | IC50 [2, 14]: 294 µM
COc1ccc(-c2coc3cc(O)ccc3c2=O)cc1 [Compound 27] | > 1000 µM | > 1000 µM | –
O=c1c(-c2ccc(O)cc2)coc2cc(O)cc(O)c12 [Compound 28] | 631 µM | 631 µM | –
O=c1c(-c2ccc3c(c2)OCO3)coc2cc(O)ccc12 [Compound 29] | 1000 µM | 1000 µM | –
COc1ccc(-c2coc3c(O)c(O)ccc3c2=O)cc1O [Compound 30] | 501 µM | 501 µM | –
COc1cc(O)cc(-c2coc3cc(O)ccc3c2=O)c1 [Compound 31] | > 1000 µM | > 1000 µM | –
COc1ccc(-c2coc3c(OC)c(O)ccc3c2=O)cc1 [Compound 32] | 776 µM | 776 µM | –
COc1ccc(-c2coc3c(O)c(OC)ccc3c2=O)cc1 [Compound 33] | – | 216 µM | IC50 [2, 14]: 216 µM
CC1(C)C=Cc2c(ccc(C(=O)/C=C/c3ccc4c(c3)OCO4)c2O)O1 [Compound 35] | – | 61.5 µM | IC50 [2, 14]: 61.5 µM
CC1(C)C=Cc2c(ccc3c2O[C@H](c2ccccc2)CC3=O)O1 [Compound 36] | – | 50 µM | IC50 [2, 14]: 50 µM
CC1(C)C=Cc2c(ccc3c2O[C@H](c2ccc4c(c2)OCO4)CC3=O)O1 [Compound 37] | – | 61.5 µM | IC50 [2, 14]: 61.5 µM
N.N.[Cl][Pt][Cl] [DDP, Cisplatin, reference compound] | – | – | inhibition rate (IR %) [3]: 59.1%; inhibition rate (IR %) [4]: 69.4%; inhibition rate (IR %) [5]: 87.4%; inhibition rate (IR %) [6]: 81.2%; inhibition rate (IR %) [7]: 89.1%; inhibition rate (IR %) [8]: 76.4%; inhibition rate (IR %) ([2]; H292, DDP 10 μM): 91.3%; inhibition rate (IR %) [9]: 69.6%; inhibition rate (IR %) [10]: 40.4%; inhibition rate (IR %) [11]: 44.6%
genistein [Compound 21] | – | – | IC50 ([2]; H292 cells, MTT, 48 h, Table S2, read-out: IC50): > 1000 µM; pIC50 ([2]; H292 cells, Table S2): < 3.000
